*1 amine or outer side, *2 acyl side, *3 side chain or, on linkers, in order; H or OH if unused. Where a SMILES comes first, the peptide text is derived from it. Bridges are numbered along the chain shown (N, C = ends). [ ]: non-standard residue; d: D form. The star is where a group is joined. X5 = NC(=O)[C@H](CCCCNC(=O)CN1CCN(CC(=O)O)CCN(CC(=O)O)CCN(CC(=O)O)CC1)NC(=O)CCC(=O)NCCCOCCOCCOCCCN*; X3 = O=C(O)CN1CCN(CC(=O)O)CCN(CC(=O)NCCCOCCOCCOCCCN*)CCN(CC(=O)O)CC1; Trp(5-Cl) = N[C@@H](Cc1c[nH]c2ccc(Cl)cc12)C(=O)O; Phe(3,5-Cl2) = N[C@@H](Cc1cc(Cl)cc(Cl)c1)C(=O)O; Pyridine(2,6-diCH2) = c1cc(C[*:1])nc(C[*:2])c1; Trp(7-aza) = N[C@@H](Cc1c[nH]c2ncccc12)C(=O)O; X22 = O=C([C@H](Cc1cccc(Cl)c1Cl)N[*:1])[*:2]; Phe(2-Cl) = N[C@@H](Cc1ccccc1Cl)C(=O)O; 2Nal = N[C@@H](Cc1ccc2ccccc2c1)C(=O)O; mXylylene = c1cc(C[*:1])cc(C[*:2])c1; Hyp = O=C(O)[C@@H]1C[C@@H](O)CN1; Suc = O=C(CCC(=O)[*:2])[*:1]; hLeu = CC(C)CC[C@H](N)C(=O)O; Thp = NC1(C(=O)O)CCOCC1; Aib = CC(C)(N)C(=O)O
Biological target: T1, GIPR (CHO-K1-hGIPR cells) (Homo sapiens, UniProt P48546)
T1 construct: host or cells: CHO-K1
T1 sequence (P48546 22-466): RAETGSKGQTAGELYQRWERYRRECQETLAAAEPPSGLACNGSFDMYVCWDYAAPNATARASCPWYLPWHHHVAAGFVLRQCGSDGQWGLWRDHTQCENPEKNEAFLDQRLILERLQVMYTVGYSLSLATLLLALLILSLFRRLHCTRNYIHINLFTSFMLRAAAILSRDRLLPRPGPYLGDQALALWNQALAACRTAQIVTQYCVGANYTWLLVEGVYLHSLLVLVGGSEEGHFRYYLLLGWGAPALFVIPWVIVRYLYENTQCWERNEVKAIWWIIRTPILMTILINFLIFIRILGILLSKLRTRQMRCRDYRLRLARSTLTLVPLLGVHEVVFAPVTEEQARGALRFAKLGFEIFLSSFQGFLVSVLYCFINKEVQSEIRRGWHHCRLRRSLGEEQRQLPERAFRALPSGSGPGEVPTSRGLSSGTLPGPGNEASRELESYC
Test: FACS binding assay
Conditions: competition with 20 nM GIP-057, 4° C. for 1 hour, read-out: pIC50 Category (converted)
How it was run: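 Read-out: flow cytometric median fluorescence intensity, APC/Cy5 channel, plotted vs peptide conc.; 4PL fit → EC50/pEC50 or IC50/pIC50. Cells: CHO-K1-hGIPR, Accutase-detached, 500.000/mL in PBS + 1% FCS. Detection: APC-streptavidin 1 μg/mL, 30 min, on ice.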

Row | SMILES | IC50
1 | CC[C@H](C)[C@@H]1NC(=O)[C@H](CC(C)C)NC(=O)C(C)(C)NC(=O)[C@@H](NC(=O)[C@@H](CC(C)C)NC(=O)[C@H](CCC(=O)O)NC(=O)[C@@H]2CCCN2C(=O)[C@H](Cc2c[nH]c3ccccc23)NC(=O)[C@H](Cc2c[nH]c3ccccc23)NC(=O)CCC(=O)O)CSCc2cccc(c2)CSC[C@@H](C(N)=O)NC1=O [GIP-258, HO-Succinyl-Trp-Trp-Pro-Glu-leu-[Cys(3MeBn)-Aib-Leu-Ile-Cys]-NH2] (Suc-WWPE[dL]C[Aib]LIC-NH2; linker 6-10 via mXylylene) | 10 to 79.4 nM
2 | CC[C@H](C)[C@@H]1NC(=O)[C@H](CC(C)C)NC(=O)C(C)(C)NC(=O)[C@@H](NC(=O)[C@H](CC(C)C)NC(=O)[C@H](CCC(=O)O)NC(=O)[C@@H]2CCCN2C(=O)[C@H](Cc2c[nH]c3ccccc23)NC(=O)[C@H](Cc2c[nH]c3ccccc23)NC(=O)CCC(=O)O)CSCc2cccc(c2)CSC[C@@H](C(N)=O)NC1=O [GIP-259, HO-Succinyl-Trp-Trp-Pro-Glu-Leu-[Cys(3MeBn)-Aib-Leu-Ile-Cys]-NH2] (Suc-WWPELC[Aib]LIC-NH2; linker 6-10 via mXylylene) | 10 to 79.4 nM
3 | CC[C@H](C)[C@@H]1NC(=O)[C@H](CCC(C)C)NC(=O)C(C)(C)NC(=O)[C@@H](NC(=O)[C@H](CC(C)C)NC(=O)[C@H](CCC(=O)O)NC(=O)[C@@H]2CCCN2C(=O)[C@H](Cc2c[nH]c3ccccc23)NC(=O)[C@H](Cc2c[nH]c3ccccc23)NC(=O)CCC(=O)O)CSCc2cccc(c2)CSC[C@@H](C(N)=O)NC1=O [GIP-260, HO-Succinyl-Trp-Trp-Pro-Glu-Leu-[Cys(3MeBn)-Aib-Hle-Ile-Cys]-NH2] (Suc-WWPELC[Aib][hLeu]IC-NH2; linker 6-10 via mXylylene) | 10 to 79.4 nM
4 | CC[C@H](C)[C@@H]1NC(=O)[C@H](CC(C)C)NC(=O)C2(CCOCC2)NC(=O)[C@@H](NC(=O)[C@H](CC(C)C)NC(=O)[C@H](CCC(=O)O)NC(=O)[C@@H]2CCCN2C(=O)[C@H](Cc2c[nH]c3ccccc23)NC(=O)[C@H](Cc2c[nH]c3ccccc23)NC(=O)CCC(=O)O)CSCc2cccc(c2)CSC[C@@H](C(N)=O)NC1=O [GIP-261, HO-Succinyl-Trp-Trp-Pro-Glu-Leu-[Cys(3MeBn)-Thp-Leu-Ile-Cys]-NH2] (Suc-WWPELC[Thp]LIC-NH2; linker 6-10 via mXylylene) | 10 to 79.4 nM
5 | CC[C@H](C)[C@@H]1NC(=O)[C@H](CC(C)C)NC(=O)C2(CCOCC2)NC(=O)[C@@H](NC(=O)[C@@H](CC(C)C)NC(=O)[C@H](CCC(=O)O)NC(=O)[C@@H]2C[C@@H](O)CN2C(=O)[C@H](Cc2c[nH]c3ccc(Cl)cc23)NC(=O)[C@H](Cc2ccccc2Cl)NC(=O)[C@H](CC(=O)O)NC(C)=O)CSCc2cccc(n2)CSC[C@@H](C(N)=O)NC1=O [GIP-262, Ac-Asp-Ocf-5Clw-Hyp-Glu-leu-[Cys(2Lut)-Thp-Leu-Ile-Cys]-NH2] (Ac-D[Phe(2-Cl)][Trp(5-Cl)][Hyp]E[dL]C[Thp]LIC-NH2; linker 7-11 via Pyridine(2,6-diCH2)) | 10 to 79.4 nM
6 | CC[C@H](C)[C@@H]1NC(=O)[C@H](CC(C)C)NC(=O)C2(CCOCC2)NC(=O)[C@@H](NC(=O)[C@@H](CC(C)C)NC(=O)[C@H](CCC(=O)O)NC(=O)[C@@H]2C[C@@H](O)CN2C(=O)[C@H](Cc2c[nH]c3ccc(Cl)cc23)NC(=O)[C@H](Cc2cc(Cl)cc(Cl)c2)NC(=O)[C@H](CC(=O)O)NC(C)=O)CSCc2cccc(n2)CSC[C@@H](C(N)=O)NC1=O [GIP-263, Ac-Asp-Egn-5Clw-Hyp-Glu-leu-[Cys(2Lut)-Thp-Leu-Ile-Cys]-NH2] (Ac-D[Phe(3,5-Cl2)][Trp(5-Cl)][Hyp]E[dL]C[Thp]LIC-NH2; linker 7-11 via Pyridine(2,6-diCH2)) | 10 to 79.4 nM
7 | CC[C@H](C)[C@@H]1NC(=O)[C@H](CC(C)C)NC(=O)C2(CCOCC2)NC(=O)[C@@H](NC(=O)[C@@H](CC(C)C)NC(=O)[C@H](CCC(=O)O)NC(=O)[C@@H]2C[C@@H](O)CN2C(=O)[C@H](Cc2cc(Cl)cc(Cl)c2)NC(=O)[C@H](Cc2c[nH]c3ccccc23)NC(=O)[C@H](CC(=O)O)NC(C)=O)CSCc2cccc(n2)CSC[C@@H](C(N)=O)NC1=O [GIP-264, Ac-Asp-Trp-Egn-Hyp-Glu-leu-[Cys(2Lut)-Thp-Leu-Ile-Cys]-NH2] (Ac-DW[Phe(3,5-Cl2)][Hyp]E[dL]C[Thp]LIC-NH2; linker 7-11 via Pyridine(2,6-diCH2)) | 10 to 79.4 nM
8 | CC[C@H](C)[C@@H]1NC(=O)[C@H](CC(C)C)NC(=O)C2(CCOCC2)NC(=O)[C@@H](NC(=O)[C@@H](CC(C)C)NC(=O)[C@H](CCC(=O)O)NC(=O)[C@@H]2C[C@@H](O)CN2C(=O)[C@H](Cc2cccc(Cl)c2Cl)NC(=O)[C@H](Cc2c[nH]c3ccccc23)NC(=O)[C@H](CC(=O)O)NC(C)=O)CSCc2cccc(n2)CSC[C@@H](C(N)=O)NC1=O [GIP-265, Ac-Asp-Trp-Egp-Hyp-Glu-leu-[Cys(2Lut)-Thp-Leu-Ile-Cys]-NH2] (Ac-DW[X22][Hyp]E[dL]C[Thp]LIC-NH2; linker 7-11 via Pyridine(2,6-diCH2)) | 10 to 79.4 nM
9 | CC(=O)N[C@@H](CC(=O)O)C(=O)N[C@@H](Cc1c[nH]c2ccccc12)C(=O)N[C@@H](Cc1c[nH]c2ccc(Cl)cc12)C(=O)N1C[C@H](O)C[C@H]1C(=O)N[C@@H](CCC(=O)O)C(=O)N[C@H](CC(C)C)C(=O)N[C@H]1CSCc2cccc(n2)CSC[C@@H](C(N)=O)NC(=O)[C@H](Cc2ccccc2)NC(=O)[C@H](CC(C)C)NC(=O)C2(CCOCC2)NC1=O [GIP-266, Ac-Asp-Trp-5Clw-Hyp-Glu-leu-[Cys(2Lut)-Thp-Leu-Phe-Cys]-NH2] (Ac-DW[Trp(5-Cl)][Hyp]E[dL]C[Thp]LFC-NH2; linker 7-11 via Pyridine(2,6-diCH2)) | 10 to 79.4 nM
10 | CC[C@H](C)[C@@H]1NC(=O)[C@H](CC(C)C)NC(=O)C2(CCOCC2)NC(=O)[C@@H](NC(=O)[C@@H](CC(C)C)NC(=O)[C@H](CCC(=O)O)NC(=O)[C@@H]2C[C@@H](O)CN2C(=O)[C@H](Cc2c[nH]c3ncccc23)NC(=O)[C@H](Cc2c[nH]c3ccccc23)NC(=O)[C@H](CC(=O)O)NC(C)=O)CSCc2cccc(n2)CSC[C@@H](C(N)=O)NC1=O [GIP-267, Ac-Asp-Trp-7Nw-Hyp-Glu-leu-[Cys(2Lut)-Thp-Leu-Ile-Cys]-NH2] (Ac-DW[Trp(7-aza)][Hyp]E[dL]C[Thp]LIC-NH2; linker 7-11 via Pyridine(2,6-diCH2)) | 10 to 79.4 nM
11 | CC[C@H](C)[C@@H]1NC(=O)[C@H](CC(C)C)NC(=O)[C@@H](C)NC(=O)[C@@H](NC(=O)[C@@H](CC(C)C)NC(=O)[C@H](CCC(=O)O)NC(=O)[C@@H]2CCCN2C(=O)[C@H](Cc2c[nH]c3ccccc23)NC(=O)[C@H](Cc2c[nH]c3ccccc23)NC(=O)[C@H](CC(=O)O)NC(=O)CCC(=O)NCCCOCCOCCOCCCNC(=O)CN2CCN(CC(=O)O)CCN(CC(=O)O)CCN(CC(=O)O)CC2)CSCc2cccc(c2)CSC[C@@H](C(N)=O)NC1=O [GIP-268, DOTA-Ttds-Asp-Trp-Trp-Pro-Glu-leu-[Cys(3MeBn)-ala-Leu-Ile-Cys]-NH2] ({X3-Suc}-DWWPE[dL]C[dA]LIC-NH2; linker 7-11 via mXylylene) | 100 to 794 nM
12 | CC[C@H](C)[C@@H]1NC(=O)[C@H](CC(C)C)NC(=O)[C@@H](C)NC(=O)[C@@H](NC(=O)[C@H](CC(C)C)NC(=O)[C@@H](CCC(=O)O)NC(=O)[C@@H]2CCCN2C(=O)[C@H](Cc2c[nH]c3ccccc23)NC(=O)[C@H](Cc2c[nH]c3ccccc23)NC(=O)[C@H](CC(=O)O)NC(=O)CCC(=O)NCCCOCCOCCOCCCNC(=O)CN2CCN(CC(=O)O)CCN(CC(=O)O)CCN(CC(=O)O)CC2)CSCc2cccc(c2)CSC[C@@H](C(N)=O)NC1=O [GIP-269, DOTA-Ttds-Asp-Trp-Trp-Pro-glu-Leu-[Cys(3MeBn)-ala-Leu-Ile-Cys]-NH2] ({X3-Suc}-DWWP[dE]LC[dA]LIC-NH2; linker 7-11 via mXylylene) | 100 to 794 nM
13 | CC[C@H](C)[C@@H]1NC(=O)[C@H](CC(C)C)NC(=O)[C@@H](C)NC(=O)[C@@H](NC(=O)[C@H](CC(C)C)NC(=O)[C@H](CCC(=O)O)NC(=O)[C@@H]2CCCN2C(=O)[C@H](Cc2c[nH]c3ccccc23)NC(=O)[C@H](Cc2c[nH]c3ccccc23)NC(=O)[C@H](CC(=O)O)NC(=O)CCC(=O)NCCCOCCOCCOCCCNC(=O)CN2CCN(CC(=O)O)CCN(CC(=O)O)CCN(CC(=O)O)CC2)CSCc2cccc(c2)CSC[C@@H](C(N)=O)NC1=O [GIP-271, DOTA-Ttds-asp-Trp-Trp-Pro-Glu-Leu-[Cys(3MeBn)-ala-Leu-Ile-Cys]-NH2] ({X3-Suc}-DWWPELC[dA]LIC-NH2; linker 7-11 via mXylylene) | 100 to 794 nM
14 | CC[C@H](C)[C@@H]1NC(=O)[C@H](CC(C)C)NC(=O)C(C)(C)NC(=O)[C@@H](NC(=O)[C@H](CC(C)C)NC(=O)[C@H](CCC(=O)O)NC(=O)[C@@H]2CCCN2C(=O)[C@H](Cc2c[nH]c3ccccc23)NC(=O)[C@H](Cc2ccc3ccccc3c2)NC(=O)[C@H](CC(=O)O)NC(C)=O)CSCc2cccc(c2)CSC[C@@H](C(=O)NCCCOCCOCCOCCCNC(=O)CCC(=O)N[C@@H](CCCCNC(=O)CN2CCN(CC(=O)O)CCN(CC(=O)O)CCN(CC(=O)O)CC2)C(N)=O)NC1=O [GIP-272, Ac-Asp-2Ni-Trp-Pro-Glu-Leu-[Cys(3MeBn)-Aib-Leu-Ile-Cys]-Ttds-Lys(DOTA)-NH2] (Ac-D[2Nal]WPELC[Aib]LIC-X5; linker 7-11 via mXylylene) | 100 to 794 nM

Reference: patent publication US20250296971A1, “GASTRIC INHIBITORY PEPTIDE RECEPTOR LIGANDS” (priority 2021, published 2025)
